{"source": "paper PMC10322880", "about": "(Communications Biology, 2023)", "origin": "cited, not measured here", "test_system": "SARS-CoV-2", "conditions": "phase 2/3 clinical trial", "data": [{"smiles": "Cn1cnc(Cn2c(=O)[nH]/c(=N\\c3cc4cn(C)nc4cc3Cl)n(Cc3cc(F)c(F)cc3F)c2=O)n1", "note": "[ensitrelvir]", "values": [{"measurement": "SARS-CoV-2 clearance", "result": "rapid SARS-CoV-2 clearance"}, {"measurement": "tolerability", "result": "well tolerated"}]}]}
